Assay [1] deals with butyrylcholinesterase (BuChE) (Homo sapiens, UniProt P06276). In kind it is biochemical. On the procedure: (§1) Based on previously described methods, in vitro study of AChE inhibitory profile was calculated. In order to make a stock solution, compounds being analyzed were dissolved in DMSO (1 mg/mL). In addition, the working solutions were also prepared by using serial dilution (1–100 μg/mL). The solution of AChE enzyme (20 μL; 0.1 U/mL), analogues being tested with different concentration and buffer of sodium phosphate (150 μL; pH 8.0; 0.1 M) were preincubated appropriately at 25 °C. The process was initiated as DTNB (10 mM; 10 μL) and […] (14 mM; 10 μL) were accumulated. The resulting residue was mixed (by using cyclomixer) and put on incubation for 10 min at 25 °C. Instead of compounds being tested using 10 μL DMSO, the absorbance against blank reading was calculated with a microplate reader at 410 nm.
(§2) By plotting a nonlinear graph between inhibition and concentration, IC50 was calculated using GraphPad Prism 5.3.
In order to explore the inhibition profile of in vitro BuChE enzyme, a similar procedure was adopted. For measurement of BuChE activity, the solution containing BuChE enzyme was used.

The target of assay [2] is acetylcholinesterase (AChE) (Homo sapiens, UniProt P22303). It is filed as biochemical. On the procedure: as §1, §2

These results are taken from article PMC9821906, “Synthesis of New Triazole-Based Thiosemicarbazone Derivatives as Anti-Alzheimer’s Disease Candidates: Evidence-Based In Vitro Study” (Molecules, 2022).

butyrylcholinesterase (BuChE), sequence (P06276 29-602): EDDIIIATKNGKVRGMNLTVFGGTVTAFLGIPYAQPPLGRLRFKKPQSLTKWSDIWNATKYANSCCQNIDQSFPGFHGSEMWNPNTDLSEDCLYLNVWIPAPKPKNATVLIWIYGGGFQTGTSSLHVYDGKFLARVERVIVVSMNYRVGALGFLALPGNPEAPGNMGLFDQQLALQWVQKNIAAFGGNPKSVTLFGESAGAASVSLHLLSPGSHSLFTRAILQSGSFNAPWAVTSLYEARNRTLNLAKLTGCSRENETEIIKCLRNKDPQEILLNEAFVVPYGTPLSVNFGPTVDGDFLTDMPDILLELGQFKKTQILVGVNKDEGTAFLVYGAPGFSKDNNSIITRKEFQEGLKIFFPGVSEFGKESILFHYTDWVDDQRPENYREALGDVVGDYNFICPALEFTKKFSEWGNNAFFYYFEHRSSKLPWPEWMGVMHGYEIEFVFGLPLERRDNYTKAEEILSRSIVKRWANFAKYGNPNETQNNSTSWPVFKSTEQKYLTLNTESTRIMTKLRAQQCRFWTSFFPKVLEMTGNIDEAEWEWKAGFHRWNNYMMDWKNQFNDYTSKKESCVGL
acetylcholinesterase (AChE), sequence (P22303 32-614, species assumed): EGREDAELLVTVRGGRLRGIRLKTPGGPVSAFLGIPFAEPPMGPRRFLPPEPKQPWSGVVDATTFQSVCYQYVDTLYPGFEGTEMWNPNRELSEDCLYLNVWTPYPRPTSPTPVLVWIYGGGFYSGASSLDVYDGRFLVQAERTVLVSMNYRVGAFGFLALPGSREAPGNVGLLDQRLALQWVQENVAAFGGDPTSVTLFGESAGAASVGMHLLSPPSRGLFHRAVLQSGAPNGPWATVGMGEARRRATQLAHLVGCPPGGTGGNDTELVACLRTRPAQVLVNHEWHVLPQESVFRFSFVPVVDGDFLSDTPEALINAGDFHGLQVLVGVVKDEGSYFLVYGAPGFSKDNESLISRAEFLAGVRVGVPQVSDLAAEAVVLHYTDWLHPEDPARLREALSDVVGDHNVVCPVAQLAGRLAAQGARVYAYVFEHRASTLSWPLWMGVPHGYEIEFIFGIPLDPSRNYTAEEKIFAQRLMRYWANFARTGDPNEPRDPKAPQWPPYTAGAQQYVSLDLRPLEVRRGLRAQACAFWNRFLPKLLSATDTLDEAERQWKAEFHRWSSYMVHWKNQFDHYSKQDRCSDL

A word on the IC50: it is the concentration at which inhibition is half-maximal. Low readings indicate higher potency, high ones lower potency. In assay [1], `O=[N+]([O-])c1ccc(-c2nnc(SC/C(=N/NC(=S)Nc3ccccc3)c3ccc(Cl)c(Cl)c3)[nH]2)cc1` [6o, (.E)-2-(1-(3,4-dichlorophenyl)-2-((5-(4-nitrophenyl)-4H-1,2,4-triazol-3-yl)thio)ethylidene)-N-phenylhydrazine-1-carbothioamide] came in with an IC50 of 3.1 ± 0.4 µM. Also, in assay [2], the IC50 came out at 2.5 ± 0.3 µM and the “Selectivity Index” value turned out to be 1.24.
Turning to `Cc1ccc(NC(=S)N/N=C(/CSc2nnc(-c3ccc([N+](=O)[O-])cc3)[nH]2)c2ccc(Br)cc2)c([N+](=O)[O-])c1` [6h, (.E)-2-(1-(4-bromophenyl)-2-((5-(4-nitrophenyl)-4H-1,2,4-triazol-3-yl)thio)ethylidene)-N-(4-methyl-2-nitrophenyl)hydrazine-1-carbothioamide], the IC50 in assay [1] was found to be 11.2 ± 0.3 µM. Moreover, in assay [2], the IC50 was 9.1 ± 0.2 µM and the “Selectivity Index” value was determined as 1.23.
`Cc1ccc(-c2ccc(NC(=S)N/N=C(/CSc3nnc(-c4ccc([N+](=O)[O-])cc4)[nH]3)c3ccc(-c4ccccc4)cc3)cc2)cc1` [6d, (.E)-2-(1-([1,1′-biphenyl]-4-yl)-2-((5-(4-nitrophenyl)-4H-1,2,4-triazol-3-yl)thio)ethylidene)-N-(4′-methyl-[1,1′-biphenyl]-4-yl)hydrazine-1-carbothioamide]: the “BuChE IC50” value in assay [1] was “completely inactive”. Further, the “AChE IC50” value in assay [2] is “completely inactive”.
In assay [1], `CN(C)c1cc(Cl)c(NC(=S)N/N=C(/CSc2nnc(-c3ccc([N+](=O)[O-])cc3)[nH]2)c2ccc(-c3ccccc3)cc2)cc1Cl` [6j, (.E)-2-(1-([1,1′-biphenyl]-4-yl)-2-((5-(4-nitrophenyl)-4H-1,2,4-triazol-3-yl)thio)ethylidene)-N-(2,5-dichloro-4-(dimethylamino)phenyl)hydrazine-1-carbothioamide] gave an IC50 of 12.3 ± 0.3 µM. Also, in assay [2], the IC50 worked out at 11.3 ± 0.3 µM and the “Selectivity Index” value was determined as 1.09.
Taken in the same sequence, the figures for `COc1cccc(/C(CSc2nnc(-c3ccc([N+](=O)[O-])cc3)[nH]2)=N\NC(=S)Nc2ccc(C)cc2[N+](=O)[O-])c1` [6t, (.E)-2-(1-(3-methoxyphenyl)-2-((5-(4-nitrophenyl)-4H-1,2,4-triazol-3-yl)thio)ethylidene)-N-(4-methyl-2-nitrophenyl)hydrazine-1-carbothioamide] were 2.5 ± 0.1 µM, 1.9 ± 0.1 µM and 1.32.
With `O=[N+]([O-])c1ccc(-c2nnc(SC/C(=N/NC(=S)Nc3ccccc3)c3ccc(-c4ccccc4)cc3)[nH]2)cc1` [6c, (.E)-2-(1-([1,1′-biphenyl]-4-yl)-2-((5-(4-nitrophenyl)-4H-1,2,4-triazol-3-yl)thio)ethylidene)-N-phenylhydrazine-1-carbothioamide], the “BuChE IC50” value in assay [1] was “completely inactive”. Besides, the “AChE IC50” value in assay [2] was “completely inactive”.
For the compound `O=[N+]([O-])c1ccc(-c2nnc(SC/C(=N/NC(=S)Nc3cccc([N+](=O)[O-])c3)c3ccc(-c4ccccc4)cc3)[nH]2)cc1` [6e, (.E)-2-(1-([1,1′-biphenyl]-4-yl)-2-((5-(4-nitrophenyl)-4H-1,2,4-triazol-3-yl)thio)ethylidene)-N-(3-nitrophenyl)hydrazine-1-carbothioamide], in assay [1], the IC50 was 6.3 ± 0.1 µM. In assay [2], the IC50 turned out to be 4.7 ± 0.1 µM and the “Selectivity Index” value turned out to be 1.34.
For the compound `O=[N+]([O-])c1ccc(-c2nnc(SC/C(=N/NC(=S)Nc3cc(Cl)c(Cl)cc3[N+](=O)[O-])c3ccccc3Br)[nH]2)cc1` [6a, (.E)-2-(1-(2-bromophenyl)-2-((5-(4-nitrophenyl)-4H-1,2,4-triazol-3-yl)thio)ethylidene)-N-(4,5-dichloro-2-nitrophenyl)hydrazine-1-carbothioamide], the results for the IC50 in assay [1] and in assay [2] were 3.9 ± 0.1 µM and 2.2 ± 0.1 µM, respectively. Besides, the “Selectivity Index” value in assay [2] turned out to be 1.77.
Taken in the same sequence, the figures for `O=[N+]([O-])c1ccc(NC(=S)N/N=C(/CSc2nnc(-c3ccc([N+](=O)[O-])cc3)[nH]2)c2ccccc2[N+](=O)[O-])cc1` [6s, (.E)-N-(4-nitrophenyl)-2-(1-(2-nitrophenyl)-2-((5-(4-nitrophenyl)-4H-1,2,4-triazol-3-yl)thio)ethylidene)hydrazine-1-carbothioamide] were 2.3 ± 0.1 µM, 1.4 ± 0.05 µM and 1.64.
Taken in the same sequence, the figures for `O=[N+]([O-])c1ccc(NC(=S)N/N=C(/CSc2nnc(-c3ccc([N+](=O)[O-])cc3)[nH]2)c2ccc(Cl)c(Cl)c2)cc1` [6n, (.E)-2-(1-(3,4-dichlorophenyl)-2-((5-(4-nitrophenyl)-4H-1,2,4-triazol-3-yl)thio)ethylidene)-N-(4-nitrophenyl)hydrazine-1-carbothioamide] were 1.7 ± 0.05 µM, 0.7 ± 0.05 µM and 2.43.
With `COc1cccc(/C(CSc2nnc(-c3ccc([N+](=O)[O-])cc3)[nH]2)=N\NC(=S)Nc2ccc([N+](=O)[O-])cc2)c1` [6u, (.E)-2-(1-(3-methoxyphenyl)-2-((5-(4-nitrophenyl)-4H-1,2,4-triazol-3-yl)thio)ethylidene)-N-(4-nitrophenyl)hydrazine-1-carbothioamide], the values for the IC50 in assay [1] and in assay [2] were 3.7 ± 0.1 µM and 2.9 ± 0.1 µM, respectively. Also, the “Selectivity Index” value in assay [2] worked out at 1.28.
Take `Cc1ccc(/C(CSc2nnc(-c3ccc([N+](=O)[O-])cc3)[nH]2)=N\NC(=S)Nc2cc(Cl)c(Cl)cc2[N+](=O)[O-])c([N+](=O)[O-])c1` [6l, (.E)-N-(4,5-dichloro-2-nitrophenyl)-2-(1-(4-methyl-2-nitrophenyl)-2-((5-(4-nitrophenyl)-4H-1,2,4-triazol-3-yl)thio)ethylidene)hydrazine-1-carbothioamide]: the half-inhibitory concentration (IC50) was 5.9 ± 0.1 µM in assay [1] and 4.6 ± 0.01 µM in assay [2]. In assay [2], the “Selectivity Index” value was determined as 1.28.
Taken in the same sequence, the figures for `COc1ccc(OC)c(/C(CSc2nnc(-c3ccc([N+](=O)[O-])cc3)[nH]2)=N\NC(=S)Nc2ccc([N+](=O)[O-])cc2)c1` [6g, (.E)-2-(1-(2,5-dimethoxyphenyl)-2-((5-(4-nitrophenyl)-4H-1,2,4-triazol-3-yl)thio)ethylidene)-N-(4-nitrophenyl)hydrazine-1-carbothioamide] were 4.3 ± 0.1 µM, 2.1 ± 0.1 µM and 2.04.
The compound `Cc1ccc(NC(=S)N/N=C(/CSc2nnc(-c3ccc([N+](=O)[O-])cc3)[nH]2)c2ccc(Cl)c(Cl)c2)c([N+](=O)[O-])c1` [6m, (.E)-2-(1-(3,4-dichlorophenyl)-2-((5-(4-nitrophenyl)-4H-1,2,4-triazol-3-yl)thio)ethylidene)-N-(4-methyl-2-nitrophenyl)hydrazine-1-carbothioamide] yielded a half-inhibitory concentration (IC50) in assay [1] of 3.8 ± 0.1 µM. Also, in assay [2], the IC50 was 2.7 ± 0.1 µM and the “Selectivity Index” value was determined as 1.41.
Taken in the same sequence, the figures for `Cc1ccc(-c2ccc(NC(=S)N/N=C(/CSc3nnc(-c4ccc([N+](=O)[O-])cc4)[nH]3)c3ccc(Cl)c(Cl)c3)cc2)cc1` [6p, (.E)-2-(1-(3,4-dichlorophenyl)-2-((5-(4-nitrophenyl)-4H-1,2,4-triazol-3-yl)thio)ethylidene)-N-(4′-methyl-[1,1′-biphenyl]-4-yl)hydrazine-1-carbothioamide] were 4.6 ± 0.1 µM, 3.2 ± 0.1 µM and 1.44.
Taken in the same sequence, the figures for `Cc1ccc(-c2ccc(NC(=S)N/N=C(/CSc3nnc(-c4ccc([N+](=O)[O-])cc4)[nH]3)c3ccc(Br)cc3)cc2)cc1` [6k, (.E)-2-(1-(4-bromophenyl)-2-((5-(4-nitrophenyl)-4H-1,2,4-triazol-3-yl)thio)ethylidene)-N-(4′-methyl-[1,1′-biphenyl]-4-yl)hydrazine-1-carbothioamide] were 14.1 ± 0.4 µM, 12.2 ± 0.3 µM and 1.15.
In turn, `COc1ccc(OC)c(/C(CSc2nnc(-c3ccc([N+](=O)[O-])cc3)[nH]2)=N\NC(=S)Nc2ccc(C)cc2[N+](=O)[O-])c1` [6f, (.E)-2-(1-(2,5-dimethoxyphenyl)-2-((5-(4-nitrophenyl)-4H-1,2,4-triazol-3-yl)thio)ethylidene)-N-(4-methyl-2-nitrophenyl)hydrazine-1-carbothioamide] yielded an IC50 in assay [1] of 4.7 ± 0.1 µM. Further, in assay [2], it took 2.4 ± 0.1 µM to reach half-maximal inhibition (IC50) and the “Selectivity Index” value is on record as 1.96.
In assay [1], `Cc1ccc(NC(=S)N/N=C(/CSc2nnc(-c3ccc([N+](=O)[O-])cc3)[nH]2)c2ccccc2[N+](=O)[O-])c([N+](=O)[O-])c1` [6r, (.E)-N-(4-methyl-2-nitrophenyl)-2-(1-(2-nitrophenyl)-2-((5-(4-nitrophenyl)-4H-1,2,4-triazol-3-yl)thio)ethylidene)hydrazine-1-carbothioamide] returned an IC50 of 2.2 ± 0.1 µM. Further, in assay [2], it took 1.3 ± 0.05 µM to reach half-maximal inhibition (IC50) and the “Selectivity Index” value was 1.69.
